# Test system: human (tumor) Hif2α (EPAS1) mRNA
# Test: Hif2α knockdown in orthotopic RCC tumor bearing mice, single injection of RNAi trigger-delivery polymer conjugate, RT-qPCR (Table 7)
# Format: in vivo
# Settings: single tail vein injection, relative to isotonic glucose
# In short: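 A single intravenous dose of Hif2α RNAi trigger–delivery polymer conjugate, or isotonic glucose vehicle, was given to nude mice with subcapsular A498-SEAP renal tumours (about 5–6 weeks old). At the indicated time, tumour RNA was assayed by biplex TaqMan qPCR against CycA, and relative expression was calculated by ΔΔCT versus vehicle.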
# [1] = RNAi trigger 80 μg, polymer 126 400 μg
# [2] = RNAi trigger 115 μg, polymer 100A 375 μg
# [3] = RNAi trigger 50 μg, polymer 064 125 μg
substance,measurement,setting,value
"AD01296 (antisense TUUCAUGAAAUCGUUACGUUGGCUTT; sense UAUAUCAACGUAACGAUUUCAUGAAA; Hif2alpha RNAi agent antisense strand; modified_base 2,4,6,8,10,14,16,18,20 /mod_base = “2′-deoxy-2′-fluoro corresponding nucleoside”; modified_base 3,5,7,9,11,12,13,15,17,19,21,22,23,24 /mod_base = “2′-O-methyl corresponding nucleoside”; modified_base 2,3,25,26 /mod_base = “5′-phosphorothioate corresponding nucleotide”; Hif2alpha RNAi agent sense strand; modified_base 2,4 modified base = “2′-hydroxy corresponding nucleoside”; modified_base 6,8,10,12,14,15,16,18,20,22,24,26 /mod_base = “2′-deoxy-2′-fluoro corresponding nucleoside”; modified_base 1,3,5,7,9,11,13,17,19,21,23,25 /mod_base = “2′)",Relative Expression day 4 (Hif2α mRNA in kidney tumor),[1],0.21
"AD01404 (antisense TUUCAUGAAAUCGUUACGUCGGCUAU; sense UAUAUCGACGUAACGAUUUCAUGAAA; Hif2alpha RNAi agent antisense strand; modified_base 25 modified base = “2′-hydroxy corresponding nucleoside”; modified_base 2,4,6,10,12,14,16,18,20 /mod_base = “2′-deoxy-2′-fluoro corresponding nucleoside”; modified_base 3,5,7,9,11,13,15,17,19,21,22,23,24,26 /mod_base = “2′-O-methyl corresponding nucleoside”; modified_base 8 /mod_base = “2′-3′ seco corresponding nucleotide”; modified_base 2,3,23,; Hif2alpha RNAi agent sense strand; modified_base 2,4 modified base = “2′-hydroxy corresponding nucleoside”; modified_base 6,8,10,12,14,16,18,20,22,24,26 /mod_base = “2′-deoxy-2′-fluoro correspondi)",Relative Expression day 4 (Hif2α mRNA in kidney tumor),"RNAi trigger 150 μg, polymer 100A 300 μg",0.58
"AD01288 (antisense TUUCAUGAAAUCGUUACGUTT; sense ACGUAACGAUUUCAUGAAAT; Hif2alpha RNAi agent antisense strand; modified_base 2,4,6,8,10,14,16,18 /mod_base = “2′-deoxy-2′-fluoro corresponding nucleoside”; modified_base 3,5,7,9,11,12,13,15,17,19 /mod_base = “2′-O-methyl corresponding nucleoside”; modified_base 21 /mod_base = “5′-phosphorothioate corresponding nucleotide”; Hif2alpha RNAi agent sense strand; modified_base 1,3,5,7,8,9,11,13,15,17,19 /mod_base = “2′-deoxy-2′-fluoro corresponding nucleoside”; modified_base 2,4,6,10,12,14,16,18 /mod_base = “2′-O-methyl corresponding nucleoside”; modified_base 20 /mod_base = “3′-3′-linked nucleotide”; modified_base 1 /mo)",Relative Expression day 4 (Hif2α mRNA in kidney tumor),[2],0.32
"AD03192 (antisense AGUAAAACAAUUGUGUACUUUAA; sense AAAGUACACAAUUGUUUUACT; Hif2alpha RNAi agent antisense strand; modified_base 2,4,6,8,10,14,18 /mod_base = “2′-deoxy-2′-fluoro corresponding nucleoside”; modified_base 1,3,5,7,9,11,12,13,15,16,17,19,20,21,22,23 /mod_base = “2′-O-methyl corresponding nucleoside”; modified_base 2,3,22,23 /mod_base = “5′-phosphorothioate corresponding nucleotide”; Hif2alpha RNAi agent sense strand; modified_base 5,7,9,10,11,13,15 /mod_base = “2′-deoxy-2′-fluoro corresponding nucleoside”; modified_base 1,2,3,4,6,8,12,14,16,17,18,19,20 /mod_base = “2′-O-methyl corresponding nucleoside”; modified_base 21 /mod_base = “3′-3′-linked nucleoti)",Relative Expression day 4 (Hif2α mRNA in kidney tumor),[3],0.286
"AD01290 (antisense TUUCAUGAAAUCGUUACGUTT; sense ACGUAACGAUUUCAUGAAAT; Hif2alpha RNAi agent antisense strand; modified_base 2,4,6,8,10,12,14,16,18 /mod_base = “2′-deoxy-2′-fluoro corresponding nucleoside”; modified_base 3,5,7,9,11,13,15,17,19 /mod_base = “2′-O-methyl corresponding nucleoside”; modified_base 21 /mod_base = “5′-phosphorothioate corresponding nucleotide”; Hif2alpha RNAi agent sense strand; modified_base 1,3,7,9,11,13,15,17,19 /mod_base = “2′-deoxy-2′-fluoro corresponding nucleoside”; modified_base 2,4,5,6,8,10,12,14,16,18 /mod_base = “2′-O-methyl corresponding nucleoside”; modified_base 20 /mod_base = “3′-3′-linked nucleotide”; modified_base 1 /mo)",Relative Expression day 4 (Hif2α mRNA in kidney tumor),[2],0.39
"AD01034 (antisense TAAGUUAAGCUCCCAUACATT; sense UGUAUGGGAGCUUAACUUAT; Hif2alpha RNAi agent antisense strand; modified_base 2,4,6,8,10,12,14,16,18 /mod_base = “2′-deoxy-2′-fluoro corresponding nucleoside”; modified_base 3,5,7,9,11,13,15,17,19 /mod_base = “2′-O-methyl corresponding nucleoside”; modified_base 21 /mod_base = “5′-phosphorothioate corresponding nucleotide”; Hif2alpha RNAi agent sense strand; modified_base 1,3,5,7,9,11,13,15,17,19 /mod_base = “2′-deoxy-2′-fluoro corresponding nucleoside”; modified_base 2,4,6,8,10,12,14,16,18 /mod_base = “2′-O-methyl corresponding nucleoside”; modified_base 20 /mod_base = “3′-3′-linked nucleotide”; modified_base 1 /mo)",Relative Expression day 4 (Hif2α mRNA in kidney tumor),[1],0.35
"AD02860 (antisense UUUCAUGAAAUCGUUACGUUG; sense ACGUAACGAUUUCAUGAAAT; Hif2alpha RNAi agent antisense strand; modified_base 2,3,8,10,14 /mod_base = “2′-deoxy-2′-fluoro corresponding nucleoside”; modified_base 1,4,5,6,7,9,11,12,13,15,16,17,18,19,20,21 /mod_base = “2′-O-methyl corresponding nucleoside”; modified_base 2,3,20,21 /mod_base = “5′-phosphorothioate corresponding nucleotide”; Hif2alpha RNAi agent sense strand; modified_base 7,8,9 /mod_base = “2′-deoxy-2′-fluoro corresponding nucleoside”; modified_base 1,2,3,4,5,6,10,11,12,13,14,15,16,17,18,19 /mod_base = “2′-O-methyl corresponding nucleoside”; modified_base 20 /mod_base = “3′-3′-linked nucleotide”; modi)",Relative Expression day 4 (Hif2α mRNA in kidney tumor),[3],0.165
"AD02874 (antisense UUUCAUGAAAUCGUUACGUUG; sense UAUACGUAACGAUUUCAUGAAAT; Hif2alpha RNAi agent antisense strand; modified_base 2,4,6,8,10,14,16,18 /mod_base = “2′-deoxy-2′-fluoro corresponding nucleoside”; modified_base 1,3,5,7,9,11,12,13,15,17,19,20,21 /mod_base = “2′-O-methyl corresponding nucleoside”; modified_base 2,3,20,21 /mod_base = “5′-phosphorothioate corresponding nucleotide”; Hif2alpha RNAi agent sense strand; modified_base 2 modified base = “2′-hydroxy corresponding nucleoside”; modified_base 10,11,12,16 /mod_base = “2′-deoxy-2′-fluoro corresponding nucleoside”; modified_base 1,3,4,5,6,7,8,9,13,14,15,17,18,19,20,21,22 /mod_base = “2′-O-methyl correspon)",Relative Expression day 4 (Hif2α mRNA in kidney tumor),[3],0.138
